In patent US11197918B2, “Pharmaceutical composition for preventing or treating neovascular disease, containing collagen type i and pigment epithelium derived factor peptide as active ingredients” (NexThera Co., Ltd., priority 2017, dated 2021):

Experiments:
HUVECs cells = test: Tube formation assay in VEGF-165-induced HUVECs; format: cell-based, human
Procedure: 48-well plates were coated with 200 μl Matrigel and maintained at 37° C. for 1 hour, and HUVECs cells were stained with Calcein-AM for 15 minutes at 37° C.
The stained HUVECs cells were dispensed into 2×10^4 cells in each well of a Matrigel-coated plate and treated with recombinant human VEGF-165 into each well to induce the tube formation of the cells.
Thereafter, collagen type I (collagen type I alpha 1, partial [Sus scrofa] GenBank: AAR03833.1) and 34-mer pigment epithelium derived factor peptide (DPFFKVPVNKLAAAVSNFGYDLYRVRSSTSPTTN: SEQ ID NO: 1) were treated separately, respectively, or mixed together and treated and incubated for 4 hours at 37° C., and the degree of tube formation of each group was confirmed.
The degree of tube formation was confirmed by taking pictures with a Micromanipulator (Olympus) and compared by measuring the length of the tube.

[1] = test system: choroidal neovascularization (CNV); test: Laser-induced choroidal neovascularization model, intravitreal injection immediately after laser irradiation; format: in vivo, C57BL/6 mice; conditions: intraocular injection for 5 days, day 14 after laser (FIG. 2A, 2B)
Procedure: 5-8 week old C57BL/6 mice were purchased from Orient and used.
The pupils of each mouse were dilated using 5 mg/mL Tropicamide (santen pharmaceutical co. ltd, Kita-ku, Osaka, Japan) eye drops and 100 mg/kg ketamine (Huons, SEONGNAM-SI, GYEONGGI-DO, Korea) and 10 mg/kg xylazine (BAYER, Leverkusen, Germany) were anesthetized by intraperitoneal injection.
After anesthesia, the mice were fixed to the mouse holder, and a laser beam of 150 to 210 mW intensity was irradiated for 0.1 second using a slit lamp microscope laser system to prepare four lesions of 50-100 μm size in the retinas of mice at 3, 6, 9 and 12 o'clock. At this time, droplets should be formed by the laser beam, which are important for breaking Bruch's membranes to form neovascularization (CNV). […]
The stained eyeball was separated and placed in 10% formalin to fix for 30 minutes, and then muscles, corneas, irises, lenses and vitreous bodies around the eyeball were carefully removed not to hurt the eye's retina fixed on the microscope and four sections were cut at 3, 6, 9, and 12 o'clock, covered with coverslip, the lesion was photographed using a fluorescence microscope, and the size was measured to compare with the control group.

[2] = test system: choroidal neovascularization (CNV); test: Choroidal neovascularization model with complete neovascularization, treatment on day 7 after laser irradiation; format: in vivo, C57BL/6 mice; conditions: 0.1% collagen type I, 25 pmol peptide or their mixture, administered once on day 7 after laser irradiation (FIG. 7B, 7C)
HUVECs tube formation = test: Stability confirmation by tube formation assay after storage; format: physicochemical, human; conditions: stored for 6 weeks at 4° C. and room temperature (FIG. 11)
Procedure: In order to confirm the stability of the mixture of PEDF 34-mer peptide and collagen, the mixture of PEDF 34-mer peptide and collagen and the PEDF 34-mer peptide were stored for 6 weeks at 4° C. and room temperature (RT), and stability of PEDF 34-mer peptide and PEDF 34-mer peptide and collagen mixture, which were prepared immediately before the experiment, were compared.
Tube formation assay for each mixture was performed to confirm angiogenesis inhibitory ability.

Substance: DPFFKVPVNKLAAAVSNFGYDLYRVRSSTSPTTN (DPFFKVPVNKLAAAVSNFGYDLYRVRSSTSPTTN; pigemented epithelium derived factor peptide)
- inhibitory effect on tube formation (HUVECs cells; carrier comparison: 0.1% collagen type I, hyaluronic acid or gelatin, alone or with peptide 0.02-500 pmol/ml (FIG. 4)): same as that of the 34-mer pigment epithelium derived factor peptide and collagen type I mixture administration group
- inhibitory effect on tube formation (HUVECs cells; peptide alone 0.2 pg/ml, VEGF-165-induced HUVECs, 4 hours (FIG. 1A, 1B)): greatest inhibitory effect on tube formation
- tube formation (HUVECs cells; peptide alone at higher concentrations (up to 5 pmol/ml), 4 hours (FIG. 1A, 1B)): the tube formation increased again
- tube formation (HUVECs cells; peptide at high concentration, alone or mixed with 0.05 or 0.1% collagen type I (FIG. 3)): the tube formation increased rapidly
- size of neovascularization (CNV) ([1]; peptide 10 pmol): increase neovascularization (CNV) again
- size of neovascularization (CNV) ([1]; peptide 0.01, 0.5 and 0.1 pmol): significantly reduced
- angiogenesis inhibitory effect [2]: almost no angiogenesis inhibitory effect
- stability: tube formation inhibition after storage compared with preparation made immediately before the experiment (HUVECs tube formation): did not inhibit the tube formation
